Where two headings read alike, the source gives them in different places. Ends that are not written are not given here.
Key:
[1] = tested on: Acinetobacter baumannii ATCC BAA-1797 (MDR); test: microbe, parasite or virus in culture; format: cell-based; details: ATCC BAA-1797
Method in brief: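 Peptides, formulated in PBS (two in DMSO with 0.002% polysorbate-80, giving 2.5% DMSO at the top dilution), are 2-fold serially diluted from 32 mcg/mL final into MHB II with 0.002% P80. A CLSI-standardized inoculum is added, plates incubate 16–20 hrs at 35° C., and visible growth is scored.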

[2] = tested on: Escherichia coli (n = 101); format: cell-based; details: n = 101
Procedure: (§1) The clinical isolates were obtained from USA hospitals. […] Plates were incubated at 35° C. overnight.

[3] = tested on: Acinetobacter spp. (n = 104); format: cell-based
Procedure: as §1

[4] = tested on: Pseudomonas aeruginosa (n = 109); format: cell-based; details: P. aeruginosa colistin-resistant (COL^R) isolates, n 8
Procedure: as §1

[5] = tested on: Klebsiella pneumoniae (n = 101); format: cell-based
Procedure: as §1

[6] = rat; for AUCinf / AUClast / Cmax / Extrapolated / MRTlast / T1/2: Mean; for Tmax: individual animals
Procedure: Male Sprague-Dawley Rats will be received from an approved vendor with a single jugular vein cannula (JVC) and allowed to acclimate to the Test Facility for at least 2 days prior to study start. Animals will be weighed prior to dosing. No fasting will be required.
Intravenous administration will be via 30 minute infusion into a JVC. Following dosing, the catheter will be flushed with ˜0.5 mL saline and tied off to prevent re-access.
Serial blood samples will be collected via jugular vein cannula (JVC) or by another approved method if patency is lost. The final blood samples will be obtained via direct cardiac puncture following inhalation anesthesia.
Blood samples will be collected into K2EDTA tubes and stored on wet ice. Whole blood will be processed to plasma by centrifugation (3500 rpm at 5° C.) within 30 minutes of collection. Plasma samples will be transferred into 96 well plates (matrix tubes) and stored at −80° C. until analysis. Administered doses will be determined gravimetrically.
Prior to extraction, a known concentration of a mass-adjusted internal standard (IS) will be added to assess recovery and allow for quantitation. Purified samples will be further subjected to high-performance liquid chromatography (HPLC) using C18 300 or 130 angstrom columns prior to MS/MS analysis. Multiple charge states will be observed by MS, so MS/MS will be employed to enable multiple reaction monitoring (MRM) analyses to determine the most MRM transitions with the highest signal-to-noise gain. Compound plasma concentrations will be determined by comparing to and compensating with co-purified IS peak intensity and validated calibrated standard curves.
Pharmacokinetic parameters will be calculated using non-compartmental methods as implemented in the Phoenix® WinNonlin® ver. 6.3 comprehensive TK/PK analysis software program (Pharsight Corporation; Mountain View, Calif.) using an IV infusion model. Pharmacokinetic analysis will be conducted using a 30-minute intravenous infusion time. Therefore, 30 minutes will be added to each sample time point postdose to obtain nominal time for TK analysis. Nominal times and dosage levels will be used for all calculations. Values below the lower limit of quantitation (BLQ) will be assigned a value of zero for the pharmacokinetic calculations. Microsoft® Excel® 2013 will be used for receipt of bioanalytical data, minor formatting, including setting BLQ values to “0”, transfer into WinNonlin® for PK analysis, and calculation of the mean when an approximated value will be excluded. All plasma concentration data from all animals will be included in the analysis. Graphical presentations will be performed using Microsoft® Excel® 2013.

Question: With “RRWVRRVRRVWRRVVRVVRRWVRR-NH2 (C-terminus assumed) [SEQ ID NO: 1]” as the substance, how does the MIC [1] read?
Answer: 4 µg/mL

Question: And the MIC90 [2]?
Answer: 4 µg/mL

Question: And the “Mode (MIC)” value [2]?
Answer: 2 µg/mL

Question: And the MIC90 [3]?
Answer: 4 µg/mL

Question: And the “Mode (MIC)” value [3]?
Answer: 4 µg/mL

Question: What about the MIC90 ([3]; Acinetobacter colistin-resistant (COL^R) isolates, n 21) of the same substance?
Answer: 16 µg/mL

Question: And the MIC90 [4]?
Answer: 16 µg/mL

Question: What about the MIC90 ([5]; K. pneumoniae colistin-resistant (COL^R) isolates, n 28) of the same substance?
Answer: 16 µg/mL

Question: What about the “Mode (MIC)” value ([5]; n = 101) of the same substance?
Answer: 8 µg/mL

Question: And the AUCinf ([6]; Group 4 IV infusion 10 mg/kg)?
Answer: 80486 ng·h/mL

Question: And the AUClast ([6]; Group 4 IV infusion 10 mg/kg)?
Answer: 80339 ng·h/mL

Question: And the Cmax ([6]; Group 4 IV infusion 10 mg/kg)?
Answer: 67192 ng/mL

Question: And the Extrapolated ([6]; Group 4 IV infusion 10 mg/kg)?
Answer: 0.186%

Question: What about the MRTlast ([6]; Group 4 IV infusion 10 mg/kg) of the same substance?
Answer: 1.18 h

Question: And the T1/2 ([6]; Group 4 IV infusion 10 mg/kg)?
Answer: 4.07 h

Question: What about the Tmax ([6]; Group 4 IV infusion 10 mg/kg) of the same substance?
Answer: 0.5333 h

Question: And the AUCinf ([6]; IV infusion 1 mg/kg)?
Answer: 787 ng·h/mL

Question: What about the AUClast ([6]; IV infusion 1 mg/kg) of the same substance?
Answer: 757 ng·h/mL

Question: And the Cmax ([6]; IV infusion 1 mg/kg)?
Answer: 1271 ng/mL

Question: And the Extrapolated ([6]; IV infusion 1 mg/kg)?
Answer: 3.28%

Question: And the MRTlast ([6]; IV infusion 1 mg/kg)?
Answer: 1.67 h

Question: And the T1/2 ([6]; IV infusion 1 mg/kg)?
Answer: 6.16 h

Question: What about the Tmax ([6]; IV infusion 1 mg/kg) of the same substance?
Answer: 0.5333 h

Question: What about the AUCinf ([6]; IV infusion 5 mg/kg) of the same substance?
Answer: 25791 ng·h/mL

Question: What about the AUClast ([6]; IV infusion 5 mg/kg) of the same substance?
Answer: 25683 ng·h/mL

Question: And the Cmax ([6]; IV infusion 5 mg/kg)?
Answer: 30409 ng/mL

Question: And the Extrapolated ([6]; IV infusion 5 mg/kg)?
Answer: 0.424%

Question: And the MRTlast ([6]; IV infusion 5 mg/kg)?
Answer: 1.03 h

Question: What about the T1/2 ([6]; IV infusion 5 mg/kg) of the same substance?
Answer: 5.43 h

Question: What about the Tmax ([6]; IV infusion 5 mg/kg) of the same substance?
Answer: 0.5333 h
